Like-named read-outs stand apart in the source and are kept apart here. Bounds are passed on as bounds.

The test system of one test is HEK 293T. The experiment in a line: Cytotoxicity assay (CellTiter-Glo), HEK 293T. In kind it is cell-based. The following applies: Homo sapiens, 72 h, read-out: Cancer cell lines IC50, HEK 293T. In general terms: Cellular ATP, detected with luciferase, serves as a proxy for viable cell number.
Another test relates to OVCAR-8. The experiment in a line: Cytotoxicity (GI50) assay, OVCAR-8. In kind it is cell-based, human.
The subject of another test is MES SA. The experiment in a line: Cytotoxicity assay (CellTiter-Glo), MES SA. As to conditions: MES-SA, read-out: Cancer cell lines IC50, MES SA. In kind it is cell-based, human.
In the next test the test system is Tubulin. Briefly: Tubulin assembly induction. In kind it is biochemical.
For another test, the system named is MCF-7. Briefly: Cytotoxicity (GI50) assay, MCF-7. In kind it is cell-based, human.
The subject of another test is MES SA DX. The experiment in a line: Cytotoxicity assay (CellTiter-Glo), MES SA DX. In kind it is cell-based, human. As to conditions: Homo sapiens, read-out: Cancer cell lines IC50, MES SA DX.
The subject of a further test is NCI/ADR-RES. Briefly: Cytotoxicity (GI50) assay, NCI/ADR-RES. In kind it is cell-based, human. The following applies: read-out: Cancer cell lines GI50, NCI/ADR-RES.
The test system of the next test is SNB-75. Briefly: Cytotoxicity (GI50) assay, SNB-75. In kind it is cell-based, human. As to conditions: SNB-75; human glioblastoma cell line; read-out: Cancer cell lines GI50, SNB-75.
The test system of a further test is MDA-MB-435. The experiment in a line: Cytotoxicity (GI50) assay, MDA-MB-435. As to conditions: MDA-MB-435; human melanoma cell line; read-out: Cancer cell lines GI50, MDA-MB-435. In kind it is cell-based, human.
The mark [1] stands for this setting: Homo sapiens, OVCAR-8, read-out: Cancer cell lines GI50, OVCAR-8.
The mark [2] stands for this setting: Homo sapiens, MCF7, read-out: Cancer cell lines GI50, MCF-7.
Setting [3] is: OVCAR-8, human ovarian cancer cell line, read-out: Cancer cell lines GI50, OVCAR-8.
[4] abbreviates: human uterine sarcoma cell line, 72 hours, CellTiter-Glo.
The mark [5] stands for this setting: MCF7, human breast cancer cell line, concentration required to decrease cell growth by 50%, read-out: Cancer cell lines GI50, MCF-7.
Where [6] appears, read: MES SA cell line with marked multidrug resistance, 72 hours, CellTiter-Glo.
Where [7] appears, read: Homo sapiens, NCI/ADR-RES, highly drug resistant human ovarian cancer cell line.

With `CC1=CCC(C(C)=Cc2csc(C)n2)OC(=O)CC(O)C(C)(C)C(=O)C(C)C(O)C(C)CCC1` (stereo not drawn) [compound 4, epothilone D, reference compound], the IC50 (commonly the concentration that inhibits the measured activity by half) in the test with HEK 293T worked out at 3.55 nM; in the test with MES SA (Homo sapiens, 72 h), 6.84 nM; with MES SA DX (MES-SA, 72 h) it was 9.7 nM. In addition, the GI50 turned out to be 13 nM in the test with OVCAR-8 (setting [1]); 14 nM with MCF-7 (setting [2]); 17 nM with NCI/ADR-RES (Homo sapiens, NCI/ADR-RES). In addition, the response with Tubulin was half-maximal at 18000 nM (EC50).

In the case of `C/C(=C\c1csc(C)n1)[C@@H]1C[C@@H]2N[C@@H]2CCC[C@H](C)[C@H](O)[C@@H](C)C(=O)C(C)(C)[C@@H](O)CC(=O)O1` [compound 8, 12,13-aziridinyl epothilone A, reference compound], the IC50 was determined as 0.95 nM in the test with HEK 293T; 1.14 nM in the test with MES SA (Homo sapiens, 72 h); 16.9 nM with MES SA DX (MES-SA, 72 h). Moreover, the GI50 was determined as 5.5 nM with OVCAR-8 (setting [1]); 2.5 nM with MCF-7 (setting [2]); 38 nM in the test with NCI/ADR-RES (Homo sapiens, NCI/ADR-RES). Besides, the EC50 (in general, the concentration needed to bring the measured effect to its halfway point) in the test with Tubulin ([…]) is over 40000 nM.

`C/C(=C\c1csc(C)n1)[C@@H]1C[C@H]2[C@@H](CCC[C@H](C)[C@H](O)[C@@H](C)C(=O)C(C)(C)[C@@H](O)CC(=O)O1)N2CCO` (stereo partly drawn) [compound 9, (1S,3S,7S,10R,11S,12S,16R)-7,11-Dihydroxy-17-(2-hydroxyethyl)-8,8,10,12-tetramethyl-3-[(1E)-1-(2-methyl-1,3-thiazol-4-yl)prop-1-en-2-yl]-4-oxa-17-azabicyclo[14.1.0]heptadecane-5,9-dione, reference compound]: the IC50 in the test with HEK 293T is 0.67 nM; in the test with MES SA (Homo sapiens, 72 h), 8.01 nM; in the test with MES SA DX (MES-SA, 72 h) it was 15.7 nM. Besides, the GI50 with OVCAR-8 (setting [1]) worked out at 3 nM; in the test on MCF-7 (setting [2]), 2 nM. For the same compound, the EC50 in the test on Tubulin ([…]) turned out to be 1900 nM.

Consider `CSc1nc(/C=C(\C)[C@@H]2C[C@@H]3N(CCN=[N+]=[N-])[C@]3(C)CCC[C@H](C)[C@H](O)[C@@H](C)C(=O)C(C)(C)[C@@H](O)CC(=O)O2)cs1` (stereo partly drawn) [compound 34, (1S,3S,7S,10R,11S,12S,16R)-17-(2-Azidoethyl)-7,11-dihydroxy-8,8,10,12,16-pentamethyl-3-{(1E)-1-[2-(methylsulfanyl)-1,3-thiazol-4-yl]prop-1-en-2-yl}-4-oxa-17-azabicyclo[14.1.0]heptadecane-5,9-dione], for which the GI50 in the test with SNB-75 was 22 nM; with OVCAR-8 (setting [3]), 15 nM; in the test with MCF-7 (setting [5]), 13 nM; in the test on MDA-MB-435, 7.3 nM; in the test on NCI/ADR-RES (setting [7]), 3.2 to 8.8 nM; in the test on NCI/ADR-RES (highly drug resistant human ovarian cancer cell line), 3.2 nM. Also, the values for the IC50 in the test with MES SA (setting [4]) and in the test with MES SA DX (setting [6]) were 0.24 nM and 0.52 nM, respectively. In the test with Tubulin ([…]), the midpoint of the response, the EC50, lay at 5400 nM.

For `CSc1nc(/C=C(\C)[C@@H]2C[C@@H]3N(CCN)[C@]3(C)CCC[C@H](C)[C@H](O)[C@@H](C)C(=O)C(C)(C)[C@@H](O)CC(=O)O2)cs1` (stereo partly drawn) [compound 37, (1S,3S,7S,10R,11S,12S,16R)-17-(2-Aminoethyl)-7,11-dihydroxy-8,8,10,12,16-pentamethyl-3-{(1E)-1-[2-(methylsulfanyl)-1,3-thiazol-4-yl]prop-1-en-2-yl}-4-oxa-17-azabicyclo[14.1.0]heptadecane-5,9-dione], the GI50 was 23 nM in the test with SNB-75; 63 nM in the test on OVCAR-8 (setting [3]); 14 nM in the test on MCF-7 (setting [5]); 15 nM in the test with MDA-MB-435; 70 nM in the test with NCI/ADR-RES (setting [7]). Further, the IC50 turned out to be 0.108 nM in the test with MES SA (setting [4]) and 12 nM in the test on MES SA DX (setting [6]). Further, the EC50 in the test on Tubulin ([…]) was found to be 6100 nM.

As to `CSc1nc(/C=C(\C)[C@@H]2C[C@@H]3N(CC4CC4)[C@]3(C)CCC[C@H](C)[C@H](O)[C@@H](C)C(=O)C(C)(C)[C@@H](O)CC(=O)O2)cs1` (stereo partly drawn) [compound 38, (1S,3S,7S,10R,11S,12S,16R)-17-(Cyclopropylmethyl)-7,11-dihydroxy-8,8,10,12,16-pentamethyl-3-{(1E)-1-[2-(methylsulfanyl)-1,3-thiazol-4-yl]prop-1-en-2-yl}-4-oxa-17-azabicyclo-[14.1.0]heptadecane-5,9-dione], the GI50 in the test with SNB-75 was 16 nM; in the test on OVCAR-8 (setting [3]), 15 nM; in the test on MCF-7 (setting [5]) it was 18 nM; with MDA-MB-435, 9.5 nM; with NCI/ADR-RES (setting [7]), 18 nM. The results for the IC50 with MES SA (setting [4]) and in the test with MES SA DX (setting [6]) were 0.056 nM and 1.26 nM, respectively. In the test on Tubulin ([…]), the EC50 came to 5100 nM.
